Data as given in PubChem BioAssay (NCI).
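96-well plates; 48 h exposure; 5 concentrations. Endpoints by linear interpolation between flanking doses. Not reached: highest tested concentration assigned. GI50: concentration for 50% inhibition of growth. TGI: total growth inhibition.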

Experiments:
Experiment in all cases: NCI anticancer screen, dose series, 48 h
[1] = tested on: COLO 205 colon
[2] = tested on: EKVX NSCLC
[3] = tested on: HOP-92 NSCLC
[4] = tested on: IGROV1 ovarian
[5] = tested on: OVCAR-3 ovarian
[6] = tested on: RPMI-8226 leukemia
[7] = tested on: SF-539 CNS
[8] = tested on: UACC-257 melanoma
[9] = tested on: A549 NSCLC
[10] = tested on: BT-549 breast

Compound: CCN(CC)CCN1C(=O)c2c(c3c4ccccc4[nH]c3c3ccc4ccccc4c23)C1=O
- GI50 [1]: 2.56 µM
- TGI [1]: 10.8 µM
- GI50 [2]: 1.69 µM
- TGI [2]: 3.32 µM
- GI50 [3]: 1.42 µM
- TGI [3]: 2.95 µM
- GI50 [4]: 1.43 µM
- TGI [4]: 2.83 µM
- GI50 [5]: 1.65 µM
- TGI [5]: 3.03 µM
- GI50 [6]: 2.01 µM
- TGI [6]: 5.65 µM
- GI50 [7]: 1.7 µM
- TGI [7]: 3.08 µM
- GI50 [8]: 1.73 µM
- TGI [8]: 3.27 µM

Compound: Cc1sc2c(c1C)/C(=N\O)c1cccn1-2
- TGI [9]: > 100 µM
- TGI [10]: > 100 µM
- TGI [1]: > 100 µM
- TGI [2]: > 100 µM
- TGI [4]: > 100 µM
- TGI [5]: > 100 µM
- TGI [6]: > 100 µM
- TGI [8]: > 100 µM

Compound: Cn1c(CO)ccc1-c1ccc(-c2ccc[se]2)[se]1
- TGI [9]: > 100 µM
- TGI [10]: > 81.4 µM
- TGI [1]: > 84.2 µM
- TGI [2]: > 100 µM
- TGI [6]: > 71.6 µM
- TGI [7]: 31.7 µM

Compound: C=C1C(O)C[C@H](OC(C)=O)[C@]2(C)C1C(OC(C)=O)[C@]1(C(C)(C)O)CC(O)C(C)=C1[C@@H](OC(=O)c1ccccc1)C2OC(C)=O (stereo partly drawn)
- TGI [9]: > 10 µM
- TGI [1]: > 10 µM
- TGI [2]: > 10 µM
- TGI [3]: > 10 µM
- TGI [4]: > 10 µM
- TGI [5]: > 10 µM
- TGI [6]: > 10 µM
- TGI [7]: > 10 µM
- TGI [8]: > 10 µM

Compound: Cc1oc2c(c1C)S(=O)(=O)C(C#N)=C(N(C)C)N2
- TGI [9]: > 100 µM
- TGI [10]: > 100 µM
- TGI [2]: > 100 µM
- TGI [3]: > 100 µM
- TGI [4]: > 100 µM
- TGI [5]: > 100 µM
- TGI [6]: > 100 µM
- TGI [7]: > 100 µM
- TGI [8]: > 100 µM

Compound: COc1cc(OC)c2c3c(OC)cc(OC)c4c(=O)c(O)c(C[C@@H](C)O)c(c5c(C[C@@H](C)O)c(O)c(=O)c1c25)c43
- TGI [9]: > 100 µM
- TGI [10]: 46 µM
- TGI [1]: 16.7 µM
- TGI [2]: > 100 µM
- TGI [3]: 35.4 µM
- TGI [4]: 49.2 µM
- TGI [5]: 9.4 µM
- TGI [7]: 93.5 µM
- TGI [8]: > 100 µM

Compound: CCOC(=O)Nc1ccc2c(c1)c(CCCCCCc1nc3ccccc3c3ccc(NC(=O)OCC)cc13)nc1ccccc12
- TGI [9]: > 100 µM
- TGI [1]: > 100 µM
- TGI [2]: > 100 µM
- TGI [3]: 63 µM
- TGI [4]: > 100 µM
- TGI [5]: 58.7 µM
- TGI [6]: > 100 µM
- TGI [7]: 25 µM
- TGI [8]: > 100 µM

Compound: COc1ccc(C2C(C#N)=C(S)N(C3OC(COC(C)=O)C(OC(C)=O)C(OC(C)=O)C3OC(C)=O)C(c3ccccc3)=C2C(C)=O)cc1 (stereo not drawn)
- TGI [9]: > 100 µM
- TGI [10]: > 100 µM
- TGI [1]: > 100 µM
- TGI [3]: > 100 µM
- TGI [4]: > 100 µM
- TGI [5]: > 100 µM
- TGI [6]: > 100 µM
- TGI [7]: > 100 µM
- TGI [8]: > 100 µM

Compound: CC1CC/C(=C\c2ccc(F)cc2)C(=O)/C1=C/c1ccc(F)cc1 (stereo not drawn)
- TGI [10]: 10.1 µM
- TGI [1]: 18.5 µM
- TGI [2]: 17.9 µM
- TGI [4]: 11.1 µM
- TGI [5]: 28.1 µM
- TGI [6]: 5.52 µM
- TGI [7]: 9.15 µM
- TGI [8]: 29.9 µM

Compound: C=C(NC(=O)C(=C)NC(=O)c1csc(C2=NC3c4csc(n4)C4NC(=O)c5csc(n5)C(C(C)(O)C(C)O)NC(=O)C5CSC(=N5)/C(=C/C)NC(=O)C(C(C)O)NC(=O)c5csc(n5)C3(CC2)NC(=O)C(C)NC(=O)C(=C)NC(=O)C(C)NC(=O)C(C(C)CC)NC2C=Cc3c(C(C)O)cc(nc3C2O)C(=O)OC4C)n1)C(N)=O (stereo not drawn)
- TGI [9]: 58.4 µM
- GI50 [1]: 0.299 µM
- TGI [1]: 0.836 µM
- TGI [2]: > 44.1 µM
- GI50 [3]: 8.07 µM
- TGI [3]: > 100 µM
- TGI [4]: 63.8 µM
- TGI [5]: > 25.8 µM
- TGI [6]: 6.28 µM
- TGI [7]: 4.13 µM
- TGI [8]: 4.22 µM

Compound: O=C(O)c1ccc(C2=Cc3cc(Cl)ccc3OC2)cc1
- TGI [9]: > 100 µM
- TGI [1]: > 100 µM
- TGI [2]: > 100 µM
- TGI [3]: > 100 µM
- TGI [4]: > 100 µM
- TGI [5]: > 100 µM
- TGI [6]: > 100 µM
- TGI [7]: > 100 µM
- TGI [8]: > 100 µM
